Drawing on patent US8618303B2, “Pyrrolidine derivatives” (Hoffmann-La Roche Inc., priority 2011, dated 2013), this text covers Ki for ten compounds.

Read-outs that look alike come from different tables or passages of the source.

In the assay the target is human NK3 receptor (Homo sapiens (Human), UniProt P29371). The experiment in a line: [3H]SR142801 competition binding assay. As to the method:
hNK3 receptor binding experiment were performed using [^3H]SR142801 (Catalog No. TRK1035, specific activity: 74.0 Ci/mmol, Amersham, GE Healthcare UK limited, Buckinghamshire, UK) and membrane isolated from HEK293 cells transiently expressing recombinant human NK3 receptor. After thawing, the membrane homogenates were centrifuged at 48,000×g for 10 min at 4° C., the pellets were resuspended in the 50 mM Tris-HCl, 4 mM MnCl2, 1 μM phosphoramidon, 0.1% BSA binding buffer at pH 7.4 to a final assay concentration of 5 μg protein/well. […] At the end of the incubation, membranes were filtered onto unitfilter (96-well white microplate with bonded GF/C filter preincubated 1 h in 0.3% PEI+0.3% BSA, Packard BioScience, Meriden, Conn.) with a Filtermate 196 harvester (Packard BioScience) and washed 4 times with ice-cold 50 mM Tris-HCl, pH 7.4 buffer. Nonspecific binding was measured in the presence of 10μM SB222200 for both radioligands. The radioactivity on the filter was counted (5 min) on a Packard Top-count microplate scintillation counter with quenching correction after addition of 45 μl of microscint 40 (Canberra Packard S.A., Ziirich, Switzerland) and shaking for 1 h. Inhibition curves were fitted according to the Hill equation: y=100/(1+(x/IC50), where nH=slope factor using Excel-fit 4 software (Microsoft). IC50 values were derived from the inhibition curve and the affinity constant (Ki) values were calculated using the Cheng-Prussoff equation Ki =IC50/(1+[L]/KD) where [L] is the concentration of radioligand and KD is its dissociation constant at the receptor, derived from the saturation isotherm. All experiments were performed in duplicate and the mean±standard error (SEM) of the individual Ki values was calculated.

[1] abbreviates: membranes from HEK293 cells transiently expressing recombinant human NK3 receptor, [3H]SR142801, Ki from IC50 by Cheng-Prussoff, read-out: Ki (uM) hNK3.

Chain of human NK3 receptor (P29371 whole entry): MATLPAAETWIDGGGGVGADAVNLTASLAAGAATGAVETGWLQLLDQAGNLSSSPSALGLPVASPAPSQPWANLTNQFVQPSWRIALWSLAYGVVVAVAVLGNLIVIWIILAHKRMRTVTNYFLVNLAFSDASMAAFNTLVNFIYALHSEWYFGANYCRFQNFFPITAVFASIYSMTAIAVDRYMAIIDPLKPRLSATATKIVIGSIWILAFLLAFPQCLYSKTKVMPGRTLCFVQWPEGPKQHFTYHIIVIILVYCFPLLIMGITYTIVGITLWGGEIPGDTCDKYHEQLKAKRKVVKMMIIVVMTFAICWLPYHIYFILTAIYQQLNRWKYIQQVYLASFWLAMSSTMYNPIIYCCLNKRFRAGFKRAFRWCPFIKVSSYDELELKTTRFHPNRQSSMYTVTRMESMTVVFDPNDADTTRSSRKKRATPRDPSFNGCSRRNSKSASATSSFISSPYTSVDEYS

`CC(C)C(=O)N1CCC(C(=O)N2C[C@H](c3ccc(Cl)cc3)[C@@](C)(N(C)C(=O)Oc3ccc(F)cc3)C2)CC1` (racemic) [Example 1, rac-[(3R,4S)-4-(4-Chloro-phenyl)-1-(1-isobutyryl-piperidine-4-carbonyl)-3-methyl-pyrrolidin-3-yl]-methyl-carbamic acid 4-fluoro-phenyl ester]: the inhibitory constant (Ki) under setting [1] was found to be 0.0105 µM. The compound `CN(C(=O)Oc1ccc(F)cc1)[C@@]1(C)CN(C(=O)C2CCN(C3CCCCC3)CC2)C[C@@H]1c1ccc(Cl)cc1` (racemic) [Example 2, rac-[(3R,4S)-4-(4-Chloro-phenyl)-1-(1-cyclohexyl-piperidine-4-carbonyl)-3-methyl-pyrrolidin-3-yl]-methyl-carbamic acid 4-fluoro-phenyl ester] showed a Ki of 0.0201 µM. In the case of `CN(C(=O)Oc1ccc(F)cc1)[C@@]1(C)CN(C(=O)c2ccc(C#N)cc2)C[C@@H]1c1ccc(Cl)cc1` (racemic) [Example 3, rac-[(3R,4S)-4-(4-Chloro-phenyl)-1-(4-cyano-benzoyl)-3-methyl-pyrrolidin-3-yl]-methyl-carbamic acid 4-fluoro-phenyl ester], the Ki under setting [1] is 0.0678 µM. As to `CC(=O)N1CCC(C(=O)N2C[C@H](c3ccc(Cl)cc3)[C@@](C)(N(C)C(=O)Oc3ccc(F)cc3)C2)CC1` (racemic) [Example 4, rac-[(3R,4S)-1-(1-Acetyl-piperidine-4-carbonyl)-4-(4-chloro-phenyl)-3-methyl-pyrrolidin-3-yl]-methyl-carbamic acid 4-fluoro-phenyl ester], under setting [1], the inhibitory constant (Ki) came out at 0.0116 µM.

For the compound `CN(C(=O)Oc1ccc(F)cc1)[C@@]1(C)CN(C(=O)C2CCOCC2)C[C@@H]1c1ccc(Cl)cc1` (racemic) [Example 5, rac-[(3R,4S)-4-(4-Chloro-phenyl)-3-methyl-1-(tetrahydro-pyran-4-carbonyl)-pyrrolidin-3-yl]-methyl-carbamic acid 4-fluoro-phenyl ester], under setting [1], the Ki is 0.0864 µM. Same read-out and setting: under `Cc1cc(C(=O)N2C[C@H](c3ccc(Cl)cc3)[C@@](C)(N(C)C(=O)Oc3ccc(F)cc3)C2)cnn1` (racemic) [Example 6, rac-[(3R,4S)-4-(4-Chloro-phenyl)-3-methyl-1-(6-methyl-pyridazine-4-carbonyl)-pyrrolidin-3-yl]-methyl-carbamic acid 4-fluoro-phenyl ester] stands 0.0649 µM; under `CN(C(=O)Oc1ccc(F)cc1)[C@@]1(C)CN(C(=O)C2CCN(C(=O)C3(C)CC3)CC2)C[C@@H]1c1ccc(Cl)cc1` (racemic) [Example 7, rac-{(3R,4S)-4-(4-Chloro-phenyl)-3-methyl-1-[1-(1-methyl-cyclopropanecarbonyl)-piperidine-4-carbonyl]-pyrrolidin-3-yl}-methyl-carbamic acid 4-fluoro-phenyl ester], 0.005 µM; under `Cc1ccc(N2CCC(C(=O)N3C[C@H](c4ccc(Cl)cc4)[C@@](C)(N(C)C(=O)Oc4ccc(F)cc4)C3)CC2)nc1` (racemic) [Example 8, rac-[(3R,4S)-4-(4-Chloro-phenyl)-3-methyl-1-(5′-methyl-3,4,5,6-tetrahydro-2H-[1,2′]bipyridinyl-4-carbonyl)-pyrrolidin-3-yl]-methyl-carbamic acid 4-fluoro-phenyl ester], 0.013 µM. The compound `CN(C(=O)Oc1ccc(F)cc1)[C@@]1(C)CN(C(=O)C2CCN(c3ccc(C#N)cn3)CC2)C[C@@H]1c1ccc(Cl)cc1` (racemic) [Example 9, rac-[(3R,4S)-4-(4-Chloro-phenyl)-1-(5′-cyano-3,4,5,6-tetrahydro-2H-[1,2′]bipyridinyl-4-carbonyl)-3-methyl-pyrrolidin-3-yl]-methyl-carbamic acid 4-fluoro-phenyl ester] came in with a Ki of 0.0021 µM. For `CN(C(=O)Oc1ccc(F)cc1)[C@@]1(C)CN(C(=O)C2CCN(c3ccc(C#N)cc3)CC2)C[C@@H]1c1ccc(Cl)cc1` (racemic) [Example 10, rac-{(3R,4S)-4-(4-Chloro-phenyl)-1-[1-(4-cyano-phenyl)-piperidine-4-carbonyl]-3-methyl-pyrrolidin-3-yl}-methyl-carbamic acid 4-fluoro-phenyl ester], under setting [1], the Ki was determined as 0.0038 µM.
